Source: patent US20250025445A1, “METHOD OF CARDIOPROTECTION” (Race Oncology LTD., priority 2021, published 2025)
Where two headings read alike, the source gives them in different places.

Tests used:
MCF7 breast cancer cells = assay: MCF7 breast cancer cell viability (CellTiter-Glo); format: cell-based, human; details: FTO inhibitor up to 10 μM with 1 μM doxorubicin; up to 72 hours; FIG. 13
Procedure: Human breast adenocarcinoma (MCF7) cells were purchased from In Vitro Technologies (Victoria, Australia) and cultured according to manufacturer's recommendations using MCF7 growth media, Low glucose Dulbecco's Modified Eagle's medium (DMEM; Sigma-Aldrich, Australia) supplemented with 10% (v/v) foetal calf serum (Sigma-Aldrich) and 1% (v/v) Penicillin-Streptomycin (Sigma-Aldrich). Briefly, 1×10^6 MCF7 were seeded and grown in Corning® T75 flasks (Sigma-Aldrich) in an incubator at 37° C. under 5% CO2 conditions. At 80-90% confluency, MCF7 were washed with Dulbecco's Phosphate Buffered Saline (Sigma-Aldrich) for 30s at room temperature and followed by incubation with Trypsin-EDTA (Sigma-Aldrich) for 5 mins at 37° C. under 5% CO2 conditions. Trypsin solution was then neutralised with 1:1 volume of MCF7 growth media. The cell suspensions were then collected into Corning® 50 mL centrifuge tubes (Sigma-Aldrich) and centrifuged at 300×g for 10 mins at room temperature. The resulting supernatants were discarded and MCF7 pellets were resuspended with 5-10 mL of pre-warmed MCF7 growth media. Total viable cells were enumerated with Invitrogen™ Countess Cell Counter (Thermo Fisher Scientific, New South Wales, Australia) and 9×10^4 live MCF7 were seeded in triplicate into Corning® 96-well white polystyrene microplate (Sigma).
(§1) Dox, Dauno and Epi, were dissolved in sterile water to make a stock concentration of 20 mM, respectively, while Tz was dissolved in sterile PBS to a stock concentration of 100 μM. […] The concentrations were as follows 0 nM, 15.62 nM, 62.5 nM, 250 nM, 500 nM, 1 μM, 5 μM, and 10 μM. […] Vehicle controls were incubated with media supplemented with either sterile water or DMSO. […] This was repeated at 48 hours and 72 hours. […] Both FB23/2 and brequinar (MedChemExpress) were dissolved in dimethyl sulfoxide (DMSO; Sigma-Aldrich) to make a stock concentration of 40 mM and 20 mM respectively.

[1] = system: Primary Human Cardiac Myocytes (HCMs); assay: Primary human cardiomyocyte cell viability (CellTiter-Glo); format: cell-based; details: up to 72 hours; for mitigation of toxicity of carfilzomib towards primary HCMs: FTO inhibitor 0-10 μM with 1 μM carfilzomib; for mitigation of toxicity of doxorubicin towards primary HCMs: FTO inhibitor 0-10 μM with 1 μM doxorubicin
Procedure: Primary Human Cardiac Myocytes (HCMs) were purchased from PromoCell® (Heidelberg, Germany) and cultured according to manufacturer's recommendations using PromoCell® Myocyte growth media (5% [v/v] foetal calf serum, 0.5 ng/ml recombinant human epidermal growth factor, 2 ng/ml recombinant human basic fibroblast growth factor, 5 μg/ml recombinant human insulin) supplemented with 1% [v/v] Penicillin-Streptomycin [Sigma-Aldrich]). Briefly, 1×10^6 HCMs were seeded and grown in Corning® T75 flasks (Sigma-Aldrich, New South Wales, Australia) in an incubator at 37° C. under 5% CO2 conditions. At 80-90% confluency, HCMs were gently detached using the DetachKit (PromoCell®), collected into Corning® 50 mL centrifuge tubes (Sigma-Aldrich), and centrifuged at 300×g for 10 mins at room temperature. The resulting supernatant were discarded and HCM pellet was resuspended with 5-10 mL of pre-warmed Myocyte Growth Medium. Total viable cells were enumerated with Invitrogen™ Countess Cell Counter (Thermo Fisher Scientific, New South Wales, Australia) and 1×10^5 live HCMs were seeded in triplicate into Corning® 96-well white polystyrene microplate (Sigma).
as §1

[2] = system: H929 multiple myeloma cells; assay: H929 multiple myeloma cell viability (CellTiter-Glo); format: cell-based, human; details: FTO inhibitor up to 10 μM with 1 μM doxorubicin; up to 72 hours
Procedure: Human multiple myeloma NCI-H929 cells were cultured using RPMI-1640 growth media (Sigma-Aldrich), supplemented with 2 mM L-glutamine (Thermo Fisher Scientific), 10% (v/v) foetal calf serum (Sigma-Aldrich) and 0.05 mM 2-mercaptoethanol (Sigma-Aldrich). Briefly, 0.5×10^6 H929 were seeded and grown in Corning® T75 flasks (Sigma-Aldrich) in an incubator at 37° C. under 5% CO2 conditions. At 80-90% confluency, the cell suspension was then collected into Corning® 50 mL centrifuge tubes (Sigma-Aldrich) and centrifuged at 300×g for 10 mins at room temperature. The resulting supernatant were discarded and H929 pellet was resuspended with 5-10 mL of pre-warmed H929 growth media. Total viable cells were enumerated with Invitrogen™ Countess Cell Counter (Thermo Fisher Scientific, New South Wales, Australia) and 1×10^4 live H929 were seeded in triplicate into Corning® 96-well white polystyrene microplate (Sigma). […] The concentrations were as follows 0 nM, 15.62 nM, 62.5 nM, 250 nM, 500 nM, 1 μM, 5 μM, and 10 μM. […] Vehicle controls were incubated with media supplemented with either sterile water or DMSO. […] This was repeated at 48 hours and 72 hours. […] Both FB23/2 and brequinar (MedChemExpress) were dissolved in dimethyl sulfoxide (DMSO; […]

[3] = cited from earlier work
[4] = cited from earlier work; remark: listed apart in the source
[5] = Doxorubicin cardiotoxicity in mice: blood tests; details: doxorubicin 5 mg/kg alone
Source text: (§2) In particular, well established cardiotoxicity markers, including left ventricular fractional shortening, heart E/A ratio, left ventricular diastolic function, left ventricular dilatation, cardiac output, plasma triglyceride levels, plasma creatine kinase-MB (CK-MB), plasma LDH (lactate dehydrogenase) and plasma brain natriuretic peptide (BNP) were monitored over a period of up to 42 days following the start of treatments delivered weekly, four times (and therefore final treatment on day 21).
(§3) Treatments were delivered to mice intravenously on days 0, 7, 14 and 21. Mice underwent echocardiography measurements at days 0, 21 and 42 to determine LVEF, FS, EDV, ESV, CO, E wave, A wave, E′, E/A, and E/E′, and blood samples were taken at days 0, 21 and 42 to assay for cardiac troponin I levels, BNP levels, CK, LDH levels and triglycerides.

[6] = doxorubicin 5 mg/kg alone
Source text: as §2, §3

[7] = i.v. weekly x4, day 21, worsening by day 42
[8] = 42 days after start of treatment

Cc1noc(C)c1-c1cc(Cl)c(Nc2ccccc2C(=O)NO)c(Cl)c1 [FB23/2]
increased loss of viability of MCF7 cells cultured with doxorubicin (MCF7 breast cancer cells): neither brequinar nor FB23/2, at concentrations of up to 10 μM, resulted in any increased loss of viability
mitigation of toxicity of carfilzomib towards primary HCMs [1]: did not mitigate the toxicity
mitigation of toxicity of doxorubicin towards primary HCMs [1]: did not mitigate the toxicity
increased loss of viability of H929 cells cultured with doxorubicin [2]: neither brequinar nor FB23/2, at concentrations of up to 10 μM, resulted in any increased loss of viability

Cc1c(-c2ccc(-c3ccccc3F)cc2)nc2ccc(F)cc2c1C(=O)O [brequinar]
increased loss of viability of MCF7 cells cultured with doxorubicin (MCF7 breast cancer cells): neither brequinar nor FB23/2, at concentrations of up to 10 μM, resulted in any increased loss of viability
mitigation of toxicity of carfilzomib towards primary HCMs [1]: did not mitigate the toxicity
mitigation of toxicity of doxorubicin towards primary HCMs [1]: did not mitigate the toxicity
increased loss of viability of H929 cells cultured with doxorubicin [2]: neither brequinar nor FB23/2, at concentrations of up to 10 μM, resulted in any increased loss of viability

CC(C)C[C@H](NC(=O)[C@H](CCc1ccccc1)NC(=O)CN1CCOCC1)C(=O)N[C@@H](Cc1ccccc1)C(=O)N[C@@H](CC(C)C)C(=O)[C@@]1(C)CO1 [carfilzomib]
patients with cardiotoxicity [3]: up to 10%

COc1cccc2c1C(=O)c1c(O)c3c(c(O)c1C2=O)C[C@@](O)(C(=O)CO)C[C@@H]3O[C@H]1C[C@H](N)[C@H](O)[C@H](C)O1 [doxorubicin]
congestive heart failure incidence ([4]; lifetime cumulative doxorubicin exposure limited to 400-450 mg/m^2): less than 58
incidence of congestive heart failure ([4]; patients received doxorubicin at 400 mg/m^2): 4.78
incidence of congestive heart failure ([4]; patients received doxorubicin at 550 mg/m^2): 26%
incidence of congestive heart failure ([4]; patients received doxorubicin at 700 mg/m^2): 48%
plasma CK-MB ([5]; day 21): significant increase
plasma triglyceride levels ([5]; day 21 and day 42): significantly elevated
heart E/A ratio [6, 7]: significant cardiotoxic effects
left ventricular fractional shortening [6, 7]: significant cardiotoxic effects
cardiac output [6, 8]: significant cardiotoxic effects
left ventricular diastolic function [6, 8]: significant cardiotoxic effects
left ventricular dilatation [6, 8]: significant cardiotoxic effects
cardiac output ([6]; day 21): not significantly so
left ventricular diastolic function ([6]; day 21): not significantly so
left ventricular dilatation ([6]; day 21): not significantly so
